Measured values reported in publication PMC4257560, “Synthesis and Functional Characterization of Substituted Isoquinolinones as MT2-Selective Melatoninergic Ligands” (PLoS ONE, 2014).
Where two headings read alike, the source gives them in different places. Marks after values point to notes of the source that are not given here.

Assays:
MT1 [1] = target: T1, MT1 (Homo sapiens, UniProt P48039); test: Inhibition of forskolin-stimulated cAMP accumulation in MT1-CHO cells; assay type: cell-based; parameters: expressed in transfected cells
Method: (§1) Both MT1 and MT2 are classified as Gi-coupled receptors with their activation leading to inhibition of intracellular cAMP production. The ability of the tested compounds to activate the endogenously expressed Gi-mediated inhibition of cAMP production was therefore examined.
(§2) All the responses were expressed as the percentage of that induced by forskolin alone (as 100%).
(§3) 2×10^5 cells were seeded in each well of 12-well plates and grown for overnight. Each well was labeled with 1 ml of [^3H]adenine (1 µCi/ml) in F-12K medium containing 1% FBS (vol/vol) for overnight. The labeling media were then replaced by 1 ml of 20 mM HEPES-buffered F-12K containing 1 mM isobutylmethylxanthine (IBMX) and the tested compounds at desired concentrations, and incubated at 37°C for 30 min. The reaction was stopped by aspiration and adding 1 ml prechilled 5% trichloroacetic acid (w/v) with 1 mM ATP, and stored at 4°C for 30 min. [^3H]cAMP was extracted from the pool of labeled adenosine nucleotides by sequential ion-exchange chromatography as previously described. The radioactivity of labeled cAMP and total labeled nucleotide fractions separated by chromatography were estimated by scintillation counting. Inhibition curves were constructed by non-linear regression using GraphPad Prism 3.

MT1 [2] = target: T1, MT1; test: Immunodetection of ERK phosphorylation in MT1-CHO cells; assay type: cell-based; parameters: expressed in transfected cells; conditions: for concentration inducing weak ERK phosphorylation in MT1-CHO cells: immunoblot
Method: (§4) CHO cells expressing MT1 or MT2 were serum-starved before treating with the indicated concentrations of melatonin or individual tested compounds. Resolved proteins were electrotransferred for immunodetection using phosphorylated ERK-specific antibody.
(§5) (A) CHO cells expressing MT1 or MT2 were treated with the indicated concentrations of 7e or luzindole in the absence or presence of a fixed concentration of melatonin (MLT) (for both MT1 or MT2) or 7b (for MT2 only). Other experimental details were as to the legend of Figure 5. Data shown were representative blots of three separate trials. (B) CHO cells expressing MT2 were treated with increasing concentrations (1 ρM – 1 µM) of melatonin in the absence or presence of 10 µM or 1 µM of 7e or 7f. Other experimental details were as to the legend of Figure 4.
(§6) 2×10^5 cells were seeded into each well of 12-well plates for overnight before serum withdrawal for 4 h to reduce the basal ERK phosphorylation. Tested compounds were diluted in serum-free culture medium at desired concentrations and treated the cells for 5 min. Reactions was stopped by aspiration and then adding 150 µl of lysis buffer with protease inhibitors (50 mM Tris–HCl, pH 7.5, 100 mM NaCl, 5 mM EDTA, 40 mM NaP2O7, 1% Triton X-100, 1 mM dithiothreitol, 200 µM Na3VO4, 100 µM phenylmethylsulfonyl fluoride, 2 µg/ml leupeptin, 4 µg/ml aprotinin, and 0.7 µg/ml pepstain). Cells were allowed to lyse for 30 min at 4°C with agitation, and the collected total cell lysates were cleared by centrifugation. Protein samples were resolved in SDS-PAGE and transferred to nitrocellulose membranes using iBlot system (Invitrogen). Phosphorylated ERK was detected using specific antibodies as described previously. Chemiluminescence signals on the blots were detected on X-ray films.

MT2 [3] = target: T2, MT2 (Homo sapiens, UniProt P49286)
T2 sequence (P49286 1-362): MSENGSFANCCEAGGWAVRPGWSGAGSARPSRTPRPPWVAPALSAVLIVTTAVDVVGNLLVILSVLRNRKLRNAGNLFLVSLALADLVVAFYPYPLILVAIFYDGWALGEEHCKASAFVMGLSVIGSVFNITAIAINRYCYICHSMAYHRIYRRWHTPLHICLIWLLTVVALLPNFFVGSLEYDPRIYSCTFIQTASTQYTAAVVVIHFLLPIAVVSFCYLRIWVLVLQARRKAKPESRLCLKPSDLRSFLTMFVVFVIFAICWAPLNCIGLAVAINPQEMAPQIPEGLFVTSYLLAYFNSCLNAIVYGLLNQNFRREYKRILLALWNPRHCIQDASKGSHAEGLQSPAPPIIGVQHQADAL
Method: (§8) Competitive receptor binding characteristics of melatonin and the 15 tested compounds towards human MT1 and MT2 stably expressed in Chinese hamster ovary (CHO) cells were determined using intact cell preparation pre-incubated with 1 nM [^3H]melatonin.
(§9) Individual melatonin receptor subtype (either MT1 or MT2) was stably co-expressed with a G protein chimera 16z25 in Chinese hamster ovary (CHO) cells, hereafter denoted as CHO-hMT1 and CHO-hMT2, respectively. […] Single cell-derived colonies of the stable lines with sufficiently high receptor density and robust responses in the fluorometric assay (as described below) were isolated from the pool of transfected cell. Usage of these clonal lines was limited to 15 passages to prevent degradation of signal detection.
(§10) Competitive binding assays were performed as described [26]. Cells were suspended in binding buffer (50 mM Tris, 2 mM MgCl2, 1 mM EGTA, pH 7.4) in the density of 1.5×10^5 cell/ml. 1 nM [^3H]melatonin and increasing concentrations of a tested compound was included. Cells were incubated at 4°C for 60 min with intermittent agitation and the reaction was stopped by rapid filtration through GF/C filters pre-soaked in 10 mM Tris, pH 7.4 and washed with 1 ml of prechilled binding buffer. Retained radioactivity was measured with Wallac 1450 Microbeta Jet scintillation counter. Competition curves were drawn as one-site competition nonlinear regression model using GraphPad Prism 3.03 to the data which were means ± SEM of 3–4 independent experiments performed in duplicates. In every assay, melatonin was included as standard reference with highly reproducible Ki values, which were calculated using the Cheng-Prusoff equation.

MT2 [4] = target: T2, MT2; test: Inhibition of forskolin-stimulated cAMP accumulation in MT2-CHO cells; assay type: cell-based; parameters: expressed in transfected cells; conditions: for IC50: MT2-CHO cells, 50 µM forskolin
Method: as §1, §2, §3

MT2 [5] = target: T2, MT2; test: biochemical; conditions: for Ki: MT2 Ki, calculated from mean pIC50 (Cheng-Prusoff), 1 nM [3H]melatonin, intact CHO cells; for Emax: read-out: MT2 %Resp±SEM (percentage of melatonin-mediated displacement of radioligand binding)
Method: as §8, §9, §10

MT2 [6] = target: T2, MT2; test: Intracellular Ca2+ mobilization (FLIPR) in MT2-CHO cells co-expressing 16z25; assay type: cell-based; parameters: expressed in transfected cells; conditions: for EC50 / Ca2+ mobilization activity at MT2 (in words) / MT2 EC50, Ca2+ mobilization: MT2-CHO cells, FLIPR; for Emax: MT2, percentage of melatonin (MT)-mediated stimulation of Ca2+ signal, read-out: MT2 %Resp ±SEM, Ca2+ signal; for shift of melatonin dose-response curve in FLIPR assay, MT2-CHO (competitive antagonism): preincubation with 10 µM or 1 µM of 7e or 7f
Method: (§7) Tested compounds in different concentrations were diluted in assay buffer in 5× of the final desired concentrations in a V-bottomed microplate, and both the cell and compound plates were put into the fluorometric imaging plate reader FLIPR^TETRA (Molecular Devices, Sunnyvale, CA). […] The peak of the time course of fluorescence changes was expressed in relative fluorescence units (RFU). Dose response curves were constructed by non-linear regression using GraphPad Prism 3.

MT1 [7] = target: T1, MT1; test: biochemical; conditions: for Emax: read-out: MT1 %Resp±SEM (percentage of melatonin-mediated displacement of radioligand binding)
Method: as §8, §9, §10

MT1 [8] = target: T1, MT1; test: Intracellular Ca2+ mobilization (FLIPR) in MT1-CHO cells co-expressing 16z25; assay type: cell-based; parameters: expressed in transfected cells; conditions: for MT1 %Resp ±SEM, Ca2+ signal: percentage of melatonin (MT)-mediated stimulation of Ca2+ signal
Method: as §7

MT1 [9] = target: T1, MT1; conditions: 1 nM [3H]melatonin, intact CHO cells, 4°C 60 min; mean ± SEM of 3–5 trials; NSB = no specific binding for up to 30 µM
Method: as §8, §9, §10

MT2 [10] = target: T2, MT2; test: Immunodetection of ERK phosphorylation in MT2-CHO cells; assay type: cell-based; parameters: expressed in transfected cells; conditions: for suppression of melatonin-induced ERK phosphorylation in MT2-CHO cells (antagonism): 1 nM melatonin (MLT), 7e and 7f at 10 µM; for suppression of 7b-induced ERK phosphorylation in MT2-CHO cells (antagonism): agonist 7b 100 nM, 7e at 10 µM; for ERK phosphorylation in MT2-CHO cells (in words): immunoblot
Method: as §4, §5, §6

[11] = calculated from mean pEC50, NSR = no significant response for up to 30 µM, read-out: MT2 EC50, Ca2+ mobilization
[12] = calculated from mean pEC50, NSR = no significant response for up to 30 µM
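Wherever MT1 pIC50±SEM is given: competitive radioligand displacement on intact CHO cells stably co-expressing human MT1 together with the G protein chimera 16z25, using rising concentrations of each compound.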
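Wherever Selectivity, ratio Ki(MT1)/Ki(MT2) is given: competition binding on intact CHO cells stably co-expressing human MT2 with G protein chimera 16z25, displacing [3H]melatonin at 4°C over 60 min, melatonin run as reference.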
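Wherever displacement of pre-incubated [3H]melatonin at MT2 (in words) is given: competition binding on intact CHO cells stably co-expressing human MT2 with G protein chimera 16z25, displacing [3H]melatonin at 4°C over 60 min, melatonin run as reference.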

T1 sequence (P48039 whole entry): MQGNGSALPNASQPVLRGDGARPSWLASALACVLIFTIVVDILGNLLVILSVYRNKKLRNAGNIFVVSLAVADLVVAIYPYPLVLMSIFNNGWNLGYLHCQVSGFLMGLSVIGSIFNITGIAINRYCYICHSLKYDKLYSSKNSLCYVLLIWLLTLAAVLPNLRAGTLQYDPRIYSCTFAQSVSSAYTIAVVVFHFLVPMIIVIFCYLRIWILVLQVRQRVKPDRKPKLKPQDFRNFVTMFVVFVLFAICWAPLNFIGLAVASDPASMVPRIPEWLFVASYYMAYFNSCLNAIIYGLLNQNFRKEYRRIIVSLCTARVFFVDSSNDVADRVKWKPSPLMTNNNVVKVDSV

Row | Compound | Selectivity, ratio Ki(MT1)/Ki(MT2) (MT2 [3]) | IC50 (MT2 [5]) | Ki (MT2 [5]) | Emax (MT2 [5]) | IC50 (MT1 [7]) | Ki (MT1 [7]) | Emax (MT1 [7]) | MT1 pIC50±SEM (MT1 [9]) | suppression of melatonin-induced ERK phosphorylation in MT2-CHO cells (antagonism) (MT2 [10]) | Ca2+ mobilization activity at MT2 (in words) (MT2 [6]) | MT2 EC50, Ca2+ mobilization (MT2 [6]; [12]) | melting point | other results
1 | COc1cc(COc2cc3ccn(C)c(=O)c3cc2OC)cc(OC)c1 [7c, 6-(3,5-Dimethoxy-benzyloxy)-7-methoxy-2-methylisoquinolin-1(2H)-one] | 37.6 | 1170 nM | 350 nM | 73 ± 9% | 57500 nM | 13100 nM | 41 ± 9% | – | – | – | – | – | MT1 IC50, inhibition of cAMP production (MT1 [1]; MT1-CHO cells, 50 µM forskolin, calculated from mean pIC50, NSR = no significant response for up to 10 µM): NSR ^b; concentration inducing weak ERK phosphorylation in MT1-CHO cells (MT1 [2]): > 1 µM; IC50 (MT2 [4]; calculated from mean pIC50, read-out: MT2 IC50, inhibition of cAMP production): 2460 nM; MT2 %Inhmax ±SEM, extrapolated (MT2 [4]; extrapolated %Inhmax from non-linear regression, MT2-CHO): 72±3 ^c %; EC50 (MT2 [6]; [11]): 21 nM; Emax (MT2 [6]): 90 ± 16%; concentration to induce exclusive MT2 activation (Ca2+ signal) (MT2 [6]; from concentration response curves, Figure 4): < 10 nM; fold less potent than 7b (EC50, Ca2+ signal, MT2) (MT2 [6]; relative to 7b, MT2-CHO): ~70 fold; EC50 (MT1 [8]): 266 nM; MT1 %Resp ±SEM, Ca2+ signal (MT1 [8]): 65±10%
2 | COc1ccc(COc2cc3ccn(C)c(=O)c3cc2OC)cc1 [7e, 7-Methoxy-6-(4-methoxy-benzyloxy)-2-methylisoquinolin-1(2H)-one] | – | 1120 nM | 334 nM | 47 ± 5% | – | – | – | NSB | reduced to almost the basal level | null response | NSR | 170 to 172 °C | suppression of 7b-induced ERK phosphorylation in MT2-CHO cells (antagonism) (MT2 [10]): significantly suppressed; shift of melatonin dose-response curve in FLIPR assay, MT2-CHO (competitive antagonism) (MT2 [6]): parallel right shift
3 | COc1cc2ccn(C)c(=O)c2cc1OCc1ccc(C)cc1 [14d, 6-Methoxy-2-methyl-7-(4-methyl-benzyloxy)-isoquinolin-1(2H)-one] | – | 13800 nM | 4150 nM | 73 ± 10% | – | – | – | NSB | – | basically inactive | NSR | 150 to 152 °C | ERK phosphorylation in MT2-CHO cells (in words) (MT2 [10]): essentially inactive
4 | CC(=O)NCCc1c(Cc2ccccc2)[nH]c2ccccc12 [luzindole, reference compound] | – | – | 2.9 nM | – | – | 102 nM | – | – | blocked | weak but significant MT2-selective agonistic activity | – | – | suppression of melatonin-induced ERK phosphorylation in MT1-CHO cells (antagonism) (MT1 [2]; 1 nM melatonin (MLT)): blocked; effect on basal ERK phosphorylation in MT1-CHO cells (MT1 [2]; at 1 µM): completely eliminated basal ERK phosphorylation; suppression of 7b-induced ERK phosphorylation in MT2-CHO cells (antagonism) (MT2 [10]): blocked; effect on basal ERK phosphorylation in MT2-CHO cells (MT2 [10]; luzindole alone): constantly enhanced
5 | COc1cccc(COc2cc3ccn(C)c(=O)c3cc2OC)c1 [7b, 7-Methoxy-6-(3-methoxy-benzyloxy)-2-methylisoquinolin-1(2H)-one] | 139 | 89.1 nM | 26.6 nM | 92 ± 4% | 16200 nM | 3700 nM | 90 ± 8% | – | – | – | – | 85 to 87 °C | inhibition of cAMP levels in MT1-CHO cells (in words) (MT1 [1]; forskolin-stimulated): observable inhibition; MT1 %Inhmax ±SEM (MT1 [1]; maximal percentage inhibition of the forskolin-elevated cAMP level, MT1-CHO): 69±8%; IC50 (MT1 [1]; read-out: MT1 IC50, inhibition of cAMP production): 1200 nM; concentration inducing weak ERK phosphorylation in MT1-CHO cells (MT1 [2]): > 1 µM; displacement of pre-incubated [3H]melatonin at MT2 (in words) (MT2 [3]; competitive binding, intact CHO cells): completely displaced; IC50 (MT2 [4]; mean ± SEM of 2 trials, read-out: MT2 pIC50 ±SEM, inhibition of cAMP production (converted)): 63.1 nM; MT2 %Inhmax ±SEM (MT2 [4]; maximal percentage inhibition of the forskolin-elevated cAMP level, MT2-CHO): 70±3%; EC50 (MT2 [6]; [11]): 0.3 nM; EC50 (MT2 [6]; mean ± SEM of 3–5 trials, read-out: MT2 pEC50 ±SEM, Ca2+ mobilization (converted)): 0.288 nM; Emax (MT2 [6]): 92 ± 11%; EC50 (MT1 [8]): 31.1 nM; MT1 %Resp ±SEM, Ca2+ signal (MT1 [8]): 63±7%
6 | COc1cc2c(=O)n(C)ccc2cc1OCc1ccc(C)cc1 [7f, 7-Methoxy-2-methyl-6-(4-methyl-benzyloxy)-isoquinolin-1(2H)-one] | 6.13 | 1100 nM | 333 nM | 70 ± 6% | 8910 nM | 2040 nM | 38 ± 10% | – | partial inhibition | – | NSR | 120 to 122 °C | shift of melatonin dose-response curve in FLIPR assay, MT2-CHO (competitive antagonism) (MT2 [6]): parallel right shift
7 | COc1cc2ccn(C)c(=O)c2cc1OCc1ccccc1 [14a, 7-Benzyloxy-6-methoxy-2-methylisoquinolin-1(2H)-one] | – | 14800 nM | 4460 nM | 78 ± 8% | – | – | – | NSB | – | basically inactive | NSR | 132 to 134 °C | ERK phosphorylation in MT2-CHO cells (in words) (MT2 [10]): essentially inactive
